The values below come from publication PMC12106615, “Population pharmacokinetics of colistin sulfate in critically ill patients based on NONMEM” (Scientific Reports, 2025).

Where a name gives a salt, the structure may show the parent alone. Bridge positions count the residues as written; N and C are the ends. Square brackets hold non-standard residues; d marks the D form. Peptide text beside a SMILES is read from it. * marks the point of attachment. X1 = CC[C@H](C)CCCCC(=O)*; Dab = NCC[C@H](N)C(=O)O

Series [1] can be described thus: Population pharmacokinetic (PPK) model of colistin sulfate, NONMEM, two-compartment with first-order elimination. It counts as in vivo, human. Here is the method: PPK analyses were performed using NONMEM version 7.5 (Icon Development Solutions, Ellicott City, MD, USA) and Pirana version 3.0. Ggplot2 version 3.5.1 package in R software (version 4.1.3, R-project.org) and Xpose version 4.3.2 packages were used to generate line plots and diagnostic plots, respectively.
One- and two-compartment structural models with first-order elimination characteristics of colistin sulfate were constructed using NONMEM software. Between-subject variability (BSV) was assessed using an exponential function. Within-subject variability (WSV) was assessed by additive, proportional, or combined (additive plus proportional) models, while model with the smallest variability represented the best ones. The base model was chosen according to diagnostic plots and goodness-of-fit criteria, including improvement of the OFV and precision and plausibility of parameter estimation. The factors influencing fixed effects were screened based on our previous study. Covariates were included in the base models in a stepwise manner, and testing was performed by using the following statistical criteria: ΔOFV > 3.84, P < 0.05. The covariate was considered to have a significant influence at ΔOFV > 3.84 and retained in the model or eliminated otherwise. All covariates with significant influence on models were then incorporated into the base models to construct full regression models. The full regression models were then subjected to reverse elimination. The included covariates were tested using stricter statistical criteria (ΔOFV > 6.63, P < 0.01), and covariates showing a small influence on the models were eliminated, thereby yielding the final model.
Goodness-of-fit plots, nonparametric bootstrap, and pc-VPC were used to evaluate the final model and parameter estimates. A nonparametric bootstrap procedure was utilized to assess the performance and stability of the final model. Random sampling and individual replacement were used to generate 1000 replicate datasets. The median and 95% CI values of the final model parameters obtained using bootstrap validation were then compared, and the predictive performance of the model was validated. The dataset was simulated 1000 times using the $SIMULATION block in NONMEM. The 90% CI values for the 5 th, 50 th, and 95 th percentiles of the simulated concentrations were calculated. The time curves were then plotted after the last dose and compared with the observed concentrations for prediction and variability correction using pc-VPC.

A short description of series [2]: Clinical outcome (14-day mortality) of patients receiving intravenous colistin sulfate. It counts as in vivo, human. The note with it: 178 critically ill patients, mostly combination therapy. The text has this:
(§1) The retrospective study subjects were patients admitted to Beijing Electric Power Hospital, Beijing, China, between May 2022 and May 2024. The study design conformed to the principles of the Declaration of Helsinki, and the study was approved by the Ethics Research Committee of Beijing Electric Power Hospital (approval no: n090327). Written informed consent was obtained from all patients or their legal representatives. In clinical practice, adult patients who had received intravenous colistin sulfate (Specification: 0.5 MU; Asia Pioneer Pharmaceutical Co., Ltd., Shanghai, China) with at least one measurement of colistin sulfate concentration were eligible for inclusion. The inclusion criteria were as follows: (1) age ≥ 18 years, (2) patients who had received colistin sulfate treatment, and (3) patients with at least one measurement of colistin sulfate concentration. The exclusion criteria were as follows: (1) patients who died within 24 h after receiving colistin sulfate treatment, (2) patients who received nebulized colistin sulfate and intrathecal colistin sulfate, and (3) patients who also received continuous renal replacement therapy during colistin sulfate treatment. […] The RIFLE criteria (risk, injury, failure, loss, and end-stage kidney disease), estimated with exclusion of the urinary output criterion, were used for detection and stratification of acute kidney injury.

The nature of series [3]: Nephrotoxicity / acute kidney injury by RIFLE criteria. To be noted: 178 critically ill patients, empirical intravenous colistin sulfate; RIFLE criteria without urinary output criterion. It counts as in vivo, human.
Excerpt: as §1

For series [4] the following is noted: 14 patients with successful treatment; ref Yu et al.[14]; cited from earlier work. The method, then: The steady-state plasma concentration (Css.avg) of these 129 patients was 0.93 ± 0.35 mg/L, which was inconsistent with the value (2.0–2.4 mg/L) jointly recommended by the multidisciplinary expert consensus[17] on the rational clinical use of colistin in China. This consensus considered that the in vitro antimicrobial activit ...

For series [5] the following is noted: previous studies; ref [14],[25]–[29]; cited from earlier work. The source says:
Advanced age, the presence of multiple coexisting diseases, severe infections, low fluid replacement volume, and exposure to combination therapy with multiple drugs are recognized as risk factors for the development of acute kidney injury associated with colistin sulfate treatment. If colistin sulfate is the only factor considered, a Css level of ...

[6] abbreviates: 178 critically ill patients, 364 concentrations, intravenous.
[7] abbreviates: nonparametric bootstrap, 1000 replicate datasets.

With `CC[C@H](C)CCCCC(=O)N[C@@H](CCN)C(=O)N[C@H](C(=O)N[C@@H](CCN)C(=O)N[C@H]1CCNC(=O)[C@H]([C@@H](C)O)NC(=O)[C@H](CCN)NC(=O)[C@H](CCN)NC(=O)[C@H](CC(C)C)NC(=O)[C@@H](CC(C)C)NC(=O)[C@H](CCN)NC1=O)[C@@H](C)O` [colistin sulfate] (X1-[Dab]T[Dab][Dab][Dab][dL]L[Dab][Dab]T; lactam 4-C), in series [1] (setting [6]), the “tvQ, typical value of inter-compartmental clearance, final model estimate” value is on record as 1.63 L/h and the “tvV2, typical value of volume of peripheral compartment distribution, final model estimate” value is reported as 109 L. For the same compound, the “tvV1, typical value of volume of central compartment distribution, final model estimate” value in series [1] (178 critically ill patients, 364 concentrations, intravenous, weight as covariate) is recorded as 49.7 L. Further, the “dVdWT, exponential parameter coefficient of WT to V1, final model estimate” value in series [1] (final PPK model) is listed as 1.2. Further, in series [1] (human, plasma, 178 critically ill patients, 364 concentrations, intravenous, CrCL as covariate, read-out: tvCL, typical value of central compartment clearance, final model estimate (converted)), the clearance is 44.3 mL/min. In addition, in series [1] (setting [7]), the “dCLdCrCL, bootstrap median” value was 0.466; the “dVdWT, bootstrap median” value is recorded as 1.28; the “tvCL, bootstrap median” value was found to be 2.67 L/h; the “tvQ, bootstrap median” value is given as 1.67 L/h. In addition, in series [1] (setting [7]), the “tvV1, bootstrap median” value was 50.04 L and the “tvV2, bootstrap median” value is reported as 103.65 L. For the same compound, in series [2], the 14-day mortality rate was 27.53%. Moreover, the “Acute kidney injury (nephrotoxicity) incidence” value in series [3] was 11.8%. Moreover, the “Css.avg of colistin sulfate” value in series [4] was 1730 ± 980 ng/mL. Further, in series [5], the “Incidence rate of nephrotoxicity induced by colistin sulfate” value is “less than 21.25%”.
